# Columns and labels:
# Assay type in all cases: cell-based
# [1] = target: proteins of U3A human fibrosarcoma cells (4462 proteins detected) (Homo sapiens, UniProt Q8IVD9); conditions: protein NUDCD3; soluble abundance after heat, U3A cells
# [2] = target: proteins of U3A human fibrosarcoma cells (4462 proteins detected) (Homo sapiens, UniProt P38919); conditions: protein EIF4A3; soluble abundance after heat, U3A cells
# [3] = target: proteins of U3A human fibrosarcoma cells (4462 proteins detected) (Homo sapiens, UniProt Q9UJ41); conditions: protein RABGEF1; U3A cells
# [4] = target: proteins of U3A human fibrosarcoma cells (4462 proteins detected) (Homo sapiens, UniProt Q14353); conditions: protein GAMT; U3A, 10 μM, 2 h
# [5] = target: proteins of U3A human fibrosarcoma cells (4462 proteins detected) (Homo sapiens, UniProt Q08623); conditions: protein HDHD1, U3A cells
# [6] = target: proteins of U3A human fibrosarcoma cells (4462 proteins detected) (Homo sapiens, UniProt P13796); conditions: protein LCP1; soluble abundance after heat, U3A cells
# [7] = target: proteins of U3A human fibrosarcoma cells (4462 proteins detected) (Homo sapiens, UniProt Q8NFQ8); conditions: protein TOR1AIP2; U3A cells
# [8] = target: proteins of U3A human fibrosarcoma cells (4462 proteins detected) (Homo sapiens, UniProt Q13185); conditions: protein CBX3, U3A cells
# [9] = target: proteins of U3A human fibrosarcoma cells (4462 proteins detected) (Homo sapiens, UniProt P46939); conditions: protein UTRN; soluble abundance after heat, U3A cells
# [10] = target: proteins of U3A human fibrosarcoma cells (4462 proteins detected) (Homo sapiens, UniProt P63146); conditions: protein UBE2B, U3A cells
# [11] = target: proteins of U3A human fibrosarcoma cells (4462 proteins detected) (Homo sapiens, UniProt Q15084); conditions: protein PDIA6; U3A cells
# [12] = target: proteins of U3A human fibrosarcoma cells (4462 proteins detected) (Homo sapiens, UniProt Q8TAQ2); conditions: protein SMARCC2; soluble abundance after heat, U3A cells
# [13] = target: proteins of U3A human fibrosarcoma cells (4462 proteins detected) (Homo sapiens, UniProt Q16576); conditions: protein RBBP7; soluble abundance after heat, U3A cells
# [14] = target: proteins of U3A human fibrosarcoma cells (4462 proteins detected) (Homo sapiens, UniProt Q96SB8); conditions: protein SMC6; U3A cells
# [15] = target: proteins of U3A human fibrosarcoma cells (4462 proteins detected) (Homo sapiens, UniProt Q9NXW2); conditions: protein DNAJB12; soluble abundance after heat, U3A cells
# [16] = target: proteins of U3A human fibrosarcoma cells (4462 proteins detected) (Homo sapiens, UniProt Q9UNM6); conditions: protein PSMD13; U3A cells
# [17] = target: proteins of U3A human fibrosarcoma cells (4462 proteins detected) (Homo sapiens, UniProt P35249); conditions: protein RFC4; U3A, 10 μM, 2 h
# [18] = target: proteins of U3A human fibrosarcoma cells (4462 proteins detected) (Homo sapiens, UniProt P20700); conditions: protein LMNB1; soluble abundance after heat, U3A cells
# [19] = target: proteins of U3A human fibrosarcoma cells (4462 proteins detected) (Homo sapiens, UniProt P52272); conditions: protein HNRNPM; U3A cells
# [20] = target: proteins of U3A human fibrosarcoma cells (4462 proteins detected) (Homo sapiens, UniProt P17813); conditions: protein ENG; U3A cells
# [21] = target: proteins of U3A human fibrosarcoma cells (4462 proteins detected) (Homo sapiens, UniProt Q9Y385); conditions: protein UBE2J1; U3A cells
# [22] = target: proteins of U3A human fibrosarcoma cells (4462 proteins detected) (Homo sapiens, UniProt Q6V1X1); conditions: protein DPP8; U3A cells
# [23] = target: proteins of U3A human fibrosarcoma cells (4462 proteins detected) (Homo sapiens, UniProt P62487); conditions: protein POLR2G; U3A cells
# [24] = target: proteins of U3A human fibrosarcoma cells (4462 proteins detected) (Homo sapiens, UniProt Q8IYW5); conditions: protein RNF168; U3A cells
# [25] = target: proteins of U3A human fibrosarcoma cells (4462 proteins detected) (Homo sapiens, UniProt Q86TB9); conditions: protein PATL1; U3A cells
# [26] = target: proteins of U3A human fibrosarcoma cells (4462 proteins detected) (Homo sapiens, UniProt Q13601); conditions: protein KRR1; soluble abundance after heat, U3A cells
# [27] = target: proteins of U3A human fibrosarcoma cells (4462 proteins detected) (Homo sapiens, UniProt P06733); conditions: protein ENO1; U3A, 10 μM, 2 h
# [28] = target: proteins of U3A human fibrosarcoma cells (4462 proteins detected) (Homo sapiens, UniProt Q9NX58); conditions: protein LYAR; U3A cells
# [29] = target: proteins of U3A human fibrosarcoma cells (4462 proteins detected) (Homo sapiens, UniProt P38432); conditions: protein COIL; soluble abundance after heat, U3A cells
# Chain of proteins of U3A human fibrosarcoma cells (4462 proteins detected) (Homo sapiens, UniProt Q6V1X1) (Q6V1X1 whole entry): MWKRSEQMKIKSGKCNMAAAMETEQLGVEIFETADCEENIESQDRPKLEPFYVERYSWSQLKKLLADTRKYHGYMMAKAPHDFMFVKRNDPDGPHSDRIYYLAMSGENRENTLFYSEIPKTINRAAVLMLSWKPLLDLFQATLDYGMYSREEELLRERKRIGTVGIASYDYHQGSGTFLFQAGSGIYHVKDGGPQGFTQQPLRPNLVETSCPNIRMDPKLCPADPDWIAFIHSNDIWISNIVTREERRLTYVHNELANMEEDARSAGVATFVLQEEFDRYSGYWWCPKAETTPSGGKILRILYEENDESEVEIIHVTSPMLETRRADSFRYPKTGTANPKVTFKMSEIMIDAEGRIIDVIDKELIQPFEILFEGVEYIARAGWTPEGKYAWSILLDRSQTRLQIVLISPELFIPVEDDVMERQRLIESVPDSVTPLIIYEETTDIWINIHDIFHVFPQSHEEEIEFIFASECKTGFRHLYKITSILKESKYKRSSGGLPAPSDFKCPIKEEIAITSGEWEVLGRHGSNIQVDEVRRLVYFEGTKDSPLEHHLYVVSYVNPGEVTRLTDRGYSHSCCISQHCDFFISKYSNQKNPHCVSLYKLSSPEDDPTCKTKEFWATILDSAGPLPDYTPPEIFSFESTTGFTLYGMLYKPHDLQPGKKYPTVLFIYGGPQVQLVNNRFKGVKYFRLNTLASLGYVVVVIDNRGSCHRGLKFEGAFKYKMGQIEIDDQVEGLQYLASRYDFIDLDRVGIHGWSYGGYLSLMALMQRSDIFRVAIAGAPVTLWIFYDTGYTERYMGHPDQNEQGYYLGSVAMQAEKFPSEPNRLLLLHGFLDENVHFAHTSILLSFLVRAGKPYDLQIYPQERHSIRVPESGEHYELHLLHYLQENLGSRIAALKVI
# Chain of proteins of U3A human fibrosarcoma cells (4462 proteins detected) (Homo sapiens, UniProt Q9Y385) (Q9Y385 whole entry): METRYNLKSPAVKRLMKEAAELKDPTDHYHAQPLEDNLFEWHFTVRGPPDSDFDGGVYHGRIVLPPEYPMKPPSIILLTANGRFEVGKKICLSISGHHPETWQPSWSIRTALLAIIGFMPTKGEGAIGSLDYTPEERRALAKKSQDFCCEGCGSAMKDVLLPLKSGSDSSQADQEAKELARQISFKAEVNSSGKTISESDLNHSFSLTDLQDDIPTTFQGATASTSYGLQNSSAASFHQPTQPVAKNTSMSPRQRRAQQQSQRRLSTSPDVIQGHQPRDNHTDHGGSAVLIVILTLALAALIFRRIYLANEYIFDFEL
# Chain of proteins of U3A human fibrosarcoma cells (4462 proteins detected) (Homo sapiens, UniProt P13796) (P13796 whole entry): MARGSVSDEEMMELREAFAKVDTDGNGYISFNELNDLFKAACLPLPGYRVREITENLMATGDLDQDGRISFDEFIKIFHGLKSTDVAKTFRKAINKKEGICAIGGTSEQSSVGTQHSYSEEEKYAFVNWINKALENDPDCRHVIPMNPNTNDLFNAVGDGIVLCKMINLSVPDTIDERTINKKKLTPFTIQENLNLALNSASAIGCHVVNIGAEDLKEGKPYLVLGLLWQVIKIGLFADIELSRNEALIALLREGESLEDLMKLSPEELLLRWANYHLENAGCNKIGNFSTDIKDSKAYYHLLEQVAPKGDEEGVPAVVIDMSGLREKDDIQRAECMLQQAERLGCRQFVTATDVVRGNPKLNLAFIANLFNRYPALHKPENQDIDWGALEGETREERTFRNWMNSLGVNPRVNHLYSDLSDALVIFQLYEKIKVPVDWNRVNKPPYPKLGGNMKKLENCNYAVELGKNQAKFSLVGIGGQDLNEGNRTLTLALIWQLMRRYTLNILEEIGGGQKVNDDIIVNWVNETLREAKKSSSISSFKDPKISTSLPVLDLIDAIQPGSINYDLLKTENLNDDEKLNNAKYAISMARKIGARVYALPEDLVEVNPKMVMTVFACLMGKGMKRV
# Chain of proteins of U3A human fibrosarcoma cells (4462 proteins detected) (Homo sapiens, UniProt P06733) (P06733 whole entry): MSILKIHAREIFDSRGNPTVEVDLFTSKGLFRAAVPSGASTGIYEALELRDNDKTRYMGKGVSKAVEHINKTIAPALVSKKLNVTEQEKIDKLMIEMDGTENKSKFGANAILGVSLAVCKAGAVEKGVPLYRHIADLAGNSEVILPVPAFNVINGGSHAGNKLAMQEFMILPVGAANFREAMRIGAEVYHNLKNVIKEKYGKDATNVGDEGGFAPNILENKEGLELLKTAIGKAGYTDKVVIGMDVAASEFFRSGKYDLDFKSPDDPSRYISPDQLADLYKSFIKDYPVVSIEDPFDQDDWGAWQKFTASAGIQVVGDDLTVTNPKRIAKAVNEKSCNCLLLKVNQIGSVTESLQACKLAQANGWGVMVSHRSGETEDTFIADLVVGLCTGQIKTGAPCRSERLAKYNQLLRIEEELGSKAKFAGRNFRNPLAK
# Chain of proteins of U3A human fibrosarcoma cells (4462 proteins detected) (Homo sapiens, UniProt Q9UJ41) (Q9UJ41 whole entry): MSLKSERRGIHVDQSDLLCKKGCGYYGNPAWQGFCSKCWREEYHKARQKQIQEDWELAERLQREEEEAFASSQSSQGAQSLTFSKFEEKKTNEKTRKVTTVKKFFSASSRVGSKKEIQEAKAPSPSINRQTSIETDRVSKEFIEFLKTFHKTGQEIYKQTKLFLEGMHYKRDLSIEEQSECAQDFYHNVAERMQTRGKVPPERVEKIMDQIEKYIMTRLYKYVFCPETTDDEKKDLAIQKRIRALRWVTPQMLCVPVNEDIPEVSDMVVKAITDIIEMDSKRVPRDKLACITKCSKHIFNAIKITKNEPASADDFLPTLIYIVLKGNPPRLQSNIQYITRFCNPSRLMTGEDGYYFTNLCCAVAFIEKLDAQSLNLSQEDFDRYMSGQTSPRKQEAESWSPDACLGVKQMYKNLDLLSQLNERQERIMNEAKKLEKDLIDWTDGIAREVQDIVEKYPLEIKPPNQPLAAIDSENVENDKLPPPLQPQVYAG
# Chain of proteins of U3A human fibrosarcoma cells (4462 proteins detected) (Homo sapiens, UniProt Q96SB8) (Q96SB8 whole entry): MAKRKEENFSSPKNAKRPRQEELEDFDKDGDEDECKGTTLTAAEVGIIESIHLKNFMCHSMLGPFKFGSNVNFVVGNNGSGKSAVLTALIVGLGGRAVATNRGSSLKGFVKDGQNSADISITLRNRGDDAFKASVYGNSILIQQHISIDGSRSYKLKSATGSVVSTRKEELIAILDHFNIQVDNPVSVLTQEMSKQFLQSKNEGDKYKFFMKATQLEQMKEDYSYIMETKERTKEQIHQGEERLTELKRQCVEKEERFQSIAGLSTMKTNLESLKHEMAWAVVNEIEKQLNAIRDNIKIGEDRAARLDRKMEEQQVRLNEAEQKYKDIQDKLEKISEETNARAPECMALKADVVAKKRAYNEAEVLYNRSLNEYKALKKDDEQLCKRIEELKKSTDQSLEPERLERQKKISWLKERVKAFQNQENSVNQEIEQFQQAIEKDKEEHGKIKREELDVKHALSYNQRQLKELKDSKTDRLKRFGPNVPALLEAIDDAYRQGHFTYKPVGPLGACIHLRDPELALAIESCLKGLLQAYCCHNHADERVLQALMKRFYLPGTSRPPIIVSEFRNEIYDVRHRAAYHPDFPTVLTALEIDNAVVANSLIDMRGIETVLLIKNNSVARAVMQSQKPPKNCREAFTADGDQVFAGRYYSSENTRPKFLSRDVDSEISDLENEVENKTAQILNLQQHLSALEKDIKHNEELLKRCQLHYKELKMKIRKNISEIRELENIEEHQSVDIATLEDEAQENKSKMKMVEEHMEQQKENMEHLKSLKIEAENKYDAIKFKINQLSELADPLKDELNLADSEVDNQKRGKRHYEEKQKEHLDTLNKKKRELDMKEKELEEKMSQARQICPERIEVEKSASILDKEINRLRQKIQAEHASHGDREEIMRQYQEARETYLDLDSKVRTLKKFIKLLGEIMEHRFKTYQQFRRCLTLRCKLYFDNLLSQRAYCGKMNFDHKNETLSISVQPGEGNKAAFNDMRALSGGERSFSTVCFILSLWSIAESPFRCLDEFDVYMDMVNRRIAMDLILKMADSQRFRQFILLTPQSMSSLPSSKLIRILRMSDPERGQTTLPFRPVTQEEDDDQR
# Chain of proteins of U3A human fibrosarcoma cells (4462 proteins detected) (Homo sapiens, UniProt Q8IYW5) (Q8IYW5 whole entry): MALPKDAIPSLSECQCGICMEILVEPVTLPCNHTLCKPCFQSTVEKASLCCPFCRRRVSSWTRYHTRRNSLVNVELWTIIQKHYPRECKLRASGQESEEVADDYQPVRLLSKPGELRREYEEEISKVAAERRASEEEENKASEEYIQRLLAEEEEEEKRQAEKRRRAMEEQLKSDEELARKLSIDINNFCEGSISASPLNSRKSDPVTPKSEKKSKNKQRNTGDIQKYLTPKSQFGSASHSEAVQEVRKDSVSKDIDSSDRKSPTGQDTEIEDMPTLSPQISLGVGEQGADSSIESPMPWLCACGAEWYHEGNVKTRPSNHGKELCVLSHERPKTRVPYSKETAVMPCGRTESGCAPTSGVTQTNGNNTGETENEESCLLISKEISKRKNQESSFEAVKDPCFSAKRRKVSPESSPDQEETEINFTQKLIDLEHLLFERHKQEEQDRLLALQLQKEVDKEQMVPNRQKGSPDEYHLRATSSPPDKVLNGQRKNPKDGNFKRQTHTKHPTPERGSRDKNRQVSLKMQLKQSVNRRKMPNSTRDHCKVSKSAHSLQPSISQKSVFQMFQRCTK
# Chain of proteins of U3A human fibrosarcoma cells (4462 proteins detected) (Homo sapiens, UniProt Q13601) (Q13601 whole entry): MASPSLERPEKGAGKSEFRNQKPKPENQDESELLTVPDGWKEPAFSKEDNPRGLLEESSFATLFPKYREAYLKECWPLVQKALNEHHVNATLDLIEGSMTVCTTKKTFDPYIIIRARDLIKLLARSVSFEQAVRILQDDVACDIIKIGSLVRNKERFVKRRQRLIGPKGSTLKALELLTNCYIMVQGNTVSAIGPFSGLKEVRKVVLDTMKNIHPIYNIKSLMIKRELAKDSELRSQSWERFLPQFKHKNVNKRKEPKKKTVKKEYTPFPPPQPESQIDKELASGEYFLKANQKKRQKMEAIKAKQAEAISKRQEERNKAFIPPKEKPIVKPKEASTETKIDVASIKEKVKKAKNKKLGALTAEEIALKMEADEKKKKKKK
# Chain of proteins of U3A human fibrosarcoma cells (4462 proteins detected) (Homo sapiens, UniProt P63146) (P63146 whole entry): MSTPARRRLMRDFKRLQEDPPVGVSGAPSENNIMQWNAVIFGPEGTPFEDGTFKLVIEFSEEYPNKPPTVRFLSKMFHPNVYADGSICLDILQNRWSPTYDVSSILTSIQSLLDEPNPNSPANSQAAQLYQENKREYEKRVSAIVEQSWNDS
smiles,measurement,setting,value
CCc1nc(N)nc(N)c1-c1ccc(Cl)cc1 [pyrimethamine],Log2 (PYR/DMSO),[1],0.15
same,Log2 (PYR/DMSO),[2],0.15
same,Log2 (PYR/DMSO),[3],0.20
same,"Log2 (PYR/DMSO), GAMT",[4],-0.27
same,Log2 (PYR/DMSO),[5],-0.04
same,Log2 (PYR/DMSO),[6],0.15
same,Log2 (PYR/DMSO),[7],0.17
same,Log2 (PYR/DMSO),[8],-0.05
same,Log2 (PYR/DMSO),[9],0.13
same,Log2 (PYR/DMSO),[10],-0.04
same,Log2 (PYR/DMSO),[11],0.16
same,Log2 (PYR/DMSO),[12],0.13
same,Log2 (PYR/DMSO),[13],0.15
same,Log2 (PYR/DMSO),[14],0.18
same,Log2 (PYR/DMSO),[15],0.15
same,Log2 (PYR/DMSO),[16],0.17
same,"Log2 (PYR/DMSO), RFC4",[17],0.27
same,Log2 (PYR/DMSO),[18],0.15
same,Log2 (PYR/DMSO),[19],0.16
same,Log2 (PYR/DMSO),[20],0.15
same,Log2 (PYR/DMSO),[21],0.22
same,Log2 (PYR/DMSO),[22],0.16
same,Log2 (PYR/DMSO),[23],0.18
same,Log2 (PYR/DMSO),[24],0.17
same,Log2 (PYR/DMSO),[25],0.22
same,Log2 (PYR/DMSO),[26],0.14
same,"Log2 (PYR/DMSO), ENO1",[27],-0.17
same,Log2 (PYR/DMSO),[28],0.18
same,Log2 (PYR/DMSO),[29],0.15

# Source: PMC8800111 (The Journal of Biological Chemistry, 2021)
